# Test results: patent publication EP1561465A2, “Methods of use of fluoroquinolone compounds against bacteria” (LG Life Sciences, Ltd., priority 1999, dated 2001)
# How the values were obtained:
# [1] = system: P. aeruginosa; assay: MIC by two-fold serial agar dilution, quinolone-resistant strains; assay type: cell-based; settings: Pseudomonas aeruginosa
# [2] = system: Haemophilus influenzae; assay: MIC by NCCLS reference broth microdilution, 450 respiratory tract pathogens; assay type: cell-based; settings: for MIC / MIC50: Haemophilus influenzae
# [3] = system: Yersinia enterocolitica; assay: MIC by agar dilution (NCCLS M7-A4), 288 enteropathogenic isolates, gemifloxacin and 15 other antimicrobials; assay type: cell-based; settings: 24 h; Yersinia enterocolitica N= 22; read-out: MIC (mg/L) Range
# [4] = system: E. coli; assay: microbe, parasite or virus in culture; assay type: cell-based; settings: Escherichia coli
# [5] = system: Streptococcus pyogenes; assay: MIC by NCCLS reference broth microdilution, 450 respiratory tract pathogens; assay type: cell-based; settings: Streptococcus pyogenes
# [6] = system: Salmonella spp.; assay: MIC by agar dilution (NCCLS M7-A4), 288 enteropathogenic isolates, gemifloxacin and 15 other antimicrobials; assay type: cell-based; settings: Salmonella spp. N= 106
# [7] = system: Moraxella catarrhalis; assay: MIC by two-fold serial agar dilution, Sensitivity Disk agar-N (Kitasato isolates); assay type: cell-based; settings: Moraxella catarrhalis (22)
# [8] = system: Klebsiella pneumoniae; assay: MIC by agar dilution (NCCLS), 322 nosocomial Gram negative isolates, Athens 1998; assay type: cell-based; settings: n = 56 isolates; for MIC50 / MIC90: Klebsiella pneumoniae
# [9] = system: Moraxella catarrhalis; assay: MIC by NCCLS reference broth microdilution, 450 respiratory tract pathogens; assay type: cell-based
# [10] = system: Streptococcus pneumoniae; assay: MIC by two-fold serial agar dilution, Sensitivity Disk agar-N (Kitasato isolates); assay type: cell-based; settings: Streptococcus pneumoniae; for MIC: 18 h, read-out: MIC Range
# [11] = system: Aeromonas spp.; assay: MIC by agar dilution (NCCLS M7-A4), 288 enteropathogenic isolates, gemifloxacin and 15 other antimicrobials; assay type: cell-based; settings: Aeromonas spp. N= 16
# [12] = system: Acinetobacter spp.; assay: MIC by agar dilution (NCCLS), 322 nosocomial Gram negative isolates, Athens 1998; assay type: cell-based; settings: n = 38 strains; for MIC90 / MIC50: Acinetobacter
# [13] = system: Campylobacter jejuni; assay: MIC by agar dilution (NCCLS M7-A4), 288 enteropathogenic isolates, gemifloxacin and 15 other antimicrobials; settings: Campylobacter jejuni N= 91
# [14] = system: Escherichia coli; assay: MIC by agar dilution (NCCLS), 322 nosocomial Gram negative isolates, Athens 1998; assay type: cell-based; settings: n = 57 isolates; for MIC50 / MIC90: Escherichia coli
# [15] = system: Haemophilus influenzae; assay: MIC by two-fold serial agar dilution, Sensitivity Disk agar-N (Kitasato isolates); assay type: cell-based; settings: Haemophilus influenzae (24)
# [16] = system: Staphylococcus aureus; assay: MIC by NCCLS reference broth microdilution, 450 respiratory tract pathogens; assay type: cell-based
# [17] = system: Pseudomonas aeruginosa; assay: MIC by agar dilution (NCCLS), 322 nosocomial Gram negative isolates, Athens 1998; assay type: cell-based; settings: n = 57 isolates
# [18] = system: Klebsiella pneumoniae; assay: MIC by NCCLS reference broth microdilution, 450 respiratory tract pathogens; assay type: cell-based
# [19] = system: Proteus mirabilis; assay: MIC by agar dilution (NCCLS), 322 nosocomial Gram negative isolates, Athens 1998; assay type: cell-based; settings: n = 57 isolates; for MIC50 / MIC90: Proteus mirabilis
# [20] = system: Streptococcus pneumoniae; assay: MIC by NCCLS reference broth microdilution, 450 respiratory tract pathogens; assay type: cell-based; settings: Streptococcus pneumoniae
# [21] = system: Enterobacter spp.; assay: MIC by agar dilution (NCCLS), 322 nosocomial Gram negative isolates, Athens 1998; assay type: cell-based; settings: n = 57 isolates; for MIC50 / MIC90: Enterobacter; for MIC50: read-out: MIC50; for MIC90: read-out: MIC90
# [22] = Haemophilus influenzae (n = 100)
# [23] = Streptococcus pyogenes (n = 100)
# [24] = erythromycin resistant I phenotype [MLSB] (n = 20)
# [25] = erythromycin resistant M phenotype (n = 20)
# [26] = Klebsiella pneumoniae, Klebsiella pneumoniae (n = 50)
smiles,measurement,setting,value
"O=C(O)c1cn(C2CC2)c2cc(N3CCNCC3)c(F)cc2c1=O [Ciprofloxacin, ciprofloxacin]",MIC,[1],1 µg/mL
same,MIC90,[2]; [22],0.015 µg/mL
same,MIC,[2]; [22],0.0075 to 0.5 µg/mL
same,MIC50,[2]; [22],≤ 0.00075 µg/mL
same,MIC,[2]; β-lactamase negative (n = 80),0.0075 to 0.5 µg/mL
same,MIC50,[2]; β-lactamase negative (n = 80),≤ 0.0075 µg/mL
same,MIC,[2]; β-lactamase positive (n = 20),0.0075 to 0.015 µg/mL
same,MIC50,[2]; β-lactamase positive (n = 20),≤ 0.0075 µg/mL
same,MIC,[3],0.015 to 0.25 mg/L
same,MIC,"[4]; E. coli KU1030, mutant type SP",0.063 µg/mL
same,MIC,"[4]; E. coli KU1036, mutant type GB (DNA gyrase B)",0.063 µg/mL
same,MIC,"[4]; E. coli KU1038, mutant type SP",0.063 µg/mL
same,MIC,"[4]; E. coli KU1042, mutant type SP",0.063 µg/mL
same,MIC,[5]; [23],0.12 to 2 µg/mL
same,MIC90,[5]; [23],0.5 µg/mL
same,MIC,[5]; erythromycin resistant C phenotype [MLSB] (n = 20),0.25 to 0.5 µg/mL
same,MIC,[5]; [24],0.12 to 2 µg/mL
same,MIC90,[5]; [24],0.5 µg/mL
same,MIC,[5]; [25],0.12 to 0.5 µg/mL
same,MIC90,[5]; [25],0.5 µg/mL
same,MIC,[5]; fully susceptible (n = 20),0.12 to 2 µg/mL
same,MIC90,[5]; fully susceptible (n = 20),0.5 µg/mL
same,MIC,[5]; multi-drug resistant (n = 20),0.25 to 1 µg/mL
same,MIC90,[5]; multi-drug resistant (n = 20),0.5 µg/mL
same,MIC (mg/L) Range,[6],≤0.015 to 1 mg/L
same,MIC50,[7],0.031 µg/mL
same,MIC Range,[7],0.031 to 0.063 µg/mL
same,MIC50,[8],≤ 0.03 µg/mL
same,MIC90,[8],0.5 µg/mL
same,MIC Range,[8],≤0.03 to 8 µg/mL
same,MIC,[9]; Moraxella catarrhalis (n = 50),0.00375 to 0.06 µg/mL
same,MIC50,[9]; Moraxella catarrhalis (n = 50),0.03 µg/mL
same,MIC,[9]; β-lactamase negative (n = 13),0.00375 to 0.03 µg/mL
same,MIC50,[9]; β-lactamase negative (n = 13),0.015 µg/mL
same,MIC,[9]; β-lactamase positive (n = 37),0.00375 to 0.06 µg/mL
same,MIC50,[9]; β-lactamase positive (n = 37),0.03 µg/mL
same,MIC,[10]; Ciprofloxacin-resistant (21),8 to 128 µg/mL
same,MIC,[10]; Ciprofloxacin-susceptible (94),0.25 to 4 µg/mL
same,MIC,[10]; Erythromycin-resistant (37),0.5 to 64 µg/mL
same,MIC,[10]; Minocycline-resistant (37),0.25 to 64 µg/mL
same,MIC,[10]; Penicillin-resistant (19),0.5 to 8 µg/mL
same,MIC50,"[10]; Penicillin-resistant (19), read-out: MIC50",0.5 µg/mL
same,MIC (mg/L) Range,[11],≤0.015 to 0.06 mg/L
same,MIC90,[12],> 64 µg/mL
same,MIC (mg/L) Range,[13],0.06 to 128 mg/L
same,MIC50,[14],≤ 0.03 µg/mL
same,MIC Range,[14],≤0.03 to 64 µg/mL
same,MIC Range,[15],0.008 to 0.031 µg/mL
same,MIC,[16]; Staphylococcus aureus (n = 50),0.06 to 4 µg/mL
same,MIC50,[16]; Staphylococcus aureus (n = 50),2 µg/mL
same,MIC,[16]; β-lactamase negative (n = 20),0.06 to 4 µg/mL
same,MIC50,[16]; β-lactamase negative (n = 20),2 µg/mL
same,MIC50,[17],0.5 µg/mL
same,MIC Range,[18]; Klebsiella pneumoniae (n = 50),≤0.0075 to 1 µg/mL
same,MIC50,[18]; [26],0.12 µg/mL
same,MIC90,[18]; [26],0.5 µg/mL
same,MIC90,"[18]; Klebsiella pneumoniae, extended spectrum β-lactamase negative (n = 30)",0.03 µg/mL
same,MIC90,"[18]; Klebsiella pneumoniae, extended spectrum β-lactamase positive (n = 20)",0.5 µg/mL
same,MIC Range,[18]; extended spectrum β-lactamase negative (n = 30),≤0.0075 to 0.12 µg/mL
same,MIC Range,[18]; extended spectrum β-lactamase positive (n = 20),0.015 to 0.5 µg/mL
same,MIC50,[19],0.06 µg/mL
same,MIC,[20]; Streptococcus pneumoniae (n = 100),0.06 to 4 µg/mL
same,MIC,[20]; multi-drug resistant (n = 16),0.5 to 4 µg/mL
same,MIC,[20]; penicillin intermediate (n = 16),0.5 to 2 µg/mL
same,MIC,[20]; penicillin resistant (n = 18),0.5 to 8 µg/mL
same,MIC50,[20]; penicillin resistant (n = 18),0.5 µg/mL
same,MIC90,[20]; penicillin resistant (n = 18),8 µg/mL
same,MIC,[20]; penicillin susceptible (n = 20),0.06 to 2 µg/mL
same,MIC50,[21],≤ 0.03 µg/mL
C[C@@H](O)[C@H]1C(=O)N2C(C(=O)O)=C(S[C@@H]3CN[C@H](C(=O)N(C)C)C3)[C@H](C)[C@H]12 [Meropenem],MIC50,[8],0.03 µg/mL
same,MIC90,[8],0.06 µg/mL
same,MIC Range,[8],≤0.03 to 2 µg/mL
same,MIC50,[12],2 µg/mL
same,MIC90,[12],8 µg/mL
same,MIC Range,[12],0.06 to 16 µg/mL
same,MIC50,[14],≤ 0.03 µg/mL
same,MIC90,[14],≤ 0.03 µg/mL
same,MIC50,[17],1 µg/mL
same,MIC90,[17],16 µg/mL
same,MIC50,[19],0.03 µg/mL
same,MIC90,[19],0.25 µg/mL
same,MIC Range,[19],≤0.03 to 4 µg/mL
same,MIC50,[21],0.06 µg/mL
same,MIC90,[21],4 µg/mL
same,MIC Range,[21],≤0.03 to 16 µg/mL
CCN1CCN(C(=O)N[C@@H](C(=O)N[C@@H]2C(=O)N3[C@@H]2SC(C)(C)[C@@H]3C(=O)O)c2ccccc2)C(=O)C1=O [Piperacillin],MIC50,[8],32 µg/mL
same,MIC90,[8],> 64 µg/mL
same,MIC50,[12],> 64 µg/mL
same,MIC90,[12],> 64 µg/mL
same,MIC50,[14],4 µg/mL
same,MIC90,[14],64 µg/mL
same,MIC50,[17],8 µg/mL
same,MIC90,[17],> 64 µg/mL
same,MIC50,[19],1 µg/mL
same,MIC90,[19],> 64 µg/mL
same,MIC50,[21],16 µg/mL
same,MIC90,[21],> 64 µg/mL
